Data on two molecules can be found in patent US6362195B1, “Branched alkoxy-substituted 2-aminopyridines as NOS inhibitors” (Pfizer Inc., priority 1997, dated 2002).

Structures can show the parent of a compound that is named as a salt.

With `CC(C)Oc1cc(C(O)CN2CCN(CCc3ccccc3)CC2)ccc1-c1cccc(N)n1` (centres unmarked) (as salt: hydrochloride), the melting point (as a rule, the temperature of the solid-liquid transition) fell in the range of 148 to 165 °C.

`Nc1cccc(-c2ccc(CCN3CCN(CCc4ccccc4)CC3)cc2OC2CCCC2)n1` (as salt: hydrochloride): the melting point is over 200 °C.
